Measured values: patent US10308639B2, “Phosphatidylinositol 3-kinase inhibitors” (Gilead Sciences, Inc., priority 2014, dated 2019)

Legend:
Type in all cases: biochemical
PI3Kβ = biological target: T1, PI3Kβ (Homo sapiens, UniProt P42338); assay: TR-FRET enzymatic activity assay, PI3Kβ; details: Table 2a; same assay
T1 construct: made in house

PI3Kδ = biological target: T2, PI3Kδ (Homo sapiens, UniProt O00329); assay: TR-FRET enzymatic activity assay, PI3Kδ; details: Table 2a; same assay
T2 construct: made in house
T2 sequence (O00329 whole entry): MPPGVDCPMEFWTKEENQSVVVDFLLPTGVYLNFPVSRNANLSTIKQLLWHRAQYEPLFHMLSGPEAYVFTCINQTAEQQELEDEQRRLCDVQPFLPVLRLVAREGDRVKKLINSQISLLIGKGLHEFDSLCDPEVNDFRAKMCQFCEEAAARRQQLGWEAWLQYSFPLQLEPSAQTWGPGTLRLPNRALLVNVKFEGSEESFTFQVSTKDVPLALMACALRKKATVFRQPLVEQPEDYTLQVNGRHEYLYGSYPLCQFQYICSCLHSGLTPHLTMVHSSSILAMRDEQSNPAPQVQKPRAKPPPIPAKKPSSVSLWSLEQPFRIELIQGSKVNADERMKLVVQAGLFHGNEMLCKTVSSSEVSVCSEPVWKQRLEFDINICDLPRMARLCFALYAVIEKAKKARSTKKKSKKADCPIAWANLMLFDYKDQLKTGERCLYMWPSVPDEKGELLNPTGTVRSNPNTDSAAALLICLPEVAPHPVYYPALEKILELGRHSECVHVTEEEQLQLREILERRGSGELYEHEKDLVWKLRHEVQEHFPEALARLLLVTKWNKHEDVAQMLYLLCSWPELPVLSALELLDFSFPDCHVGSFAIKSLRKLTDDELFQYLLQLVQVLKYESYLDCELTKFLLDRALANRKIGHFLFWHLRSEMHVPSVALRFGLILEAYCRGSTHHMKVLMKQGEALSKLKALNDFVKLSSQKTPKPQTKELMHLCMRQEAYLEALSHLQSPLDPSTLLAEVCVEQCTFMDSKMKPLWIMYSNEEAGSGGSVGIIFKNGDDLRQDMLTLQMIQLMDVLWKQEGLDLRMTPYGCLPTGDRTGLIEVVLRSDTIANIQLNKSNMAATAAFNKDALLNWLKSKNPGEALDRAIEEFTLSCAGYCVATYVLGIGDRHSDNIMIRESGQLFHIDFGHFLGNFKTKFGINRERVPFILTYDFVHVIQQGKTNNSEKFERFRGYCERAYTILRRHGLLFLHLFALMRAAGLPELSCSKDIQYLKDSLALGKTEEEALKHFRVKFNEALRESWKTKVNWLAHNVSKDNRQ
T2 sequence (P27986 whole entry partner): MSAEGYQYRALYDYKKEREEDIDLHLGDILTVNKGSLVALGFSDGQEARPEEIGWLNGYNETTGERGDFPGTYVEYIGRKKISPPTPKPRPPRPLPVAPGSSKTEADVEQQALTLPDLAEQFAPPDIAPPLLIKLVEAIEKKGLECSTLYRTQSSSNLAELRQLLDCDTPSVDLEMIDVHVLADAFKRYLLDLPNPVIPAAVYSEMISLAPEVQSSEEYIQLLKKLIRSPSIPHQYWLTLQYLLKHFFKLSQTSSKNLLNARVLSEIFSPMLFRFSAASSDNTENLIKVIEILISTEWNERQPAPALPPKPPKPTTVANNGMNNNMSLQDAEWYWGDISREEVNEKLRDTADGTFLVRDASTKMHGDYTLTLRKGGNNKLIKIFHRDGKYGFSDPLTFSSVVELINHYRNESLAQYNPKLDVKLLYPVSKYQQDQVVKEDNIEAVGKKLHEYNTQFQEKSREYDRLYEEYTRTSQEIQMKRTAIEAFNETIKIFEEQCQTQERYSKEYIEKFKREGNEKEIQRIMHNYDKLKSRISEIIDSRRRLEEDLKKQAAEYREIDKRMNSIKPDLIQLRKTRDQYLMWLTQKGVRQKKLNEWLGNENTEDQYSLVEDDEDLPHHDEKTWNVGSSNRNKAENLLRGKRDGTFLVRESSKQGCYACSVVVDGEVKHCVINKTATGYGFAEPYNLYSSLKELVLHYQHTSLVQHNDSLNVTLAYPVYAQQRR

PI3Kγ = biological target: T3, PI3Kγ (Homo sapiens, UniProt P48736); assay: TR-FRET enzymatic activity assay, PI3Kγ; details: Table 2a; same assay; read-out: PI3Kγ IC50
T3 construct: made in house
T3 sequence (P48736 whole entry): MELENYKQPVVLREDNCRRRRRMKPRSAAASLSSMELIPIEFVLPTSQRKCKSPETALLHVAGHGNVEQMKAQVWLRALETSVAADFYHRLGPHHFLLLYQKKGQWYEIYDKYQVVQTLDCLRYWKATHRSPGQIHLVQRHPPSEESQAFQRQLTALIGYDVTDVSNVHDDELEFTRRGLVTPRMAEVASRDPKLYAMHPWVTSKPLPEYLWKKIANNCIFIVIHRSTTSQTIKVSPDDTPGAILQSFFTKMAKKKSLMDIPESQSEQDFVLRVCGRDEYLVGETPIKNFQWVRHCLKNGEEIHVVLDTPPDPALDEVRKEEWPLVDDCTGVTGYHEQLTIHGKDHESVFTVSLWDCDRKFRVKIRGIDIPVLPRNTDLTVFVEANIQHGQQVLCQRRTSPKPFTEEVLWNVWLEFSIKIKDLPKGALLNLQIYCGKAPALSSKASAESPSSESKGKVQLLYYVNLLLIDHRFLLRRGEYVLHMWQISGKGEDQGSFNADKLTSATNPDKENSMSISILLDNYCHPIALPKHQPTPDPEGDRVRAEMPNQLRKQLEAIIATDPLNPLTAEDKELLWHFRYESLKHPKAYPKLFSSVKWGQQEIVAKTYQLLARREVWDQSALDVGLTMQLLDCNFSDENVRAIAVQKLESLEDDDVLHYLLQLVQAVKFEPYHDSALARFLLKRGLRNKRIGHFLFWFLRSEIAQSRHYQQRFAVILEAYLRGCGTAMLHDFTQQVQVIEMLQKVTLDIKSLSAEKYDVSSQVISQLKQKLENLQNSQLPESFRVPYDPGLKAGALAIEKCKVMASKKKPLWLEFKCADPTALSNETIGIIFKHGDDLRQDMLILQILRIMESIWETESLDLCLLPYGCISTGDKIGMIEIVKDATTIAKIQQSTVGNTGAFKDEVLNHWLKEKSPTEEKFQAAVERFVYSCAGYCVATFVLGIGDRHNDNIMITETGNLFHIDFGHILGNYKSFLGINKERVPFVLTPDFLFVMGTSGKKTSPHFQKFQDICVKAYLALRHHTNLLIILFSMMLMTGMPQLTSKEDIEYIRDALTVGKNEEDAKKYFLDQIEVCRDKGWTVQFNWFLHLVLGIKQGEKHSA
Summary of the method: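 Compounds were profiled per isoform in a biochemical kinase reaction, with activity detected by time-resolved fluorescence resonance energy transfer.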

T1 sequence (P42338 whole entry): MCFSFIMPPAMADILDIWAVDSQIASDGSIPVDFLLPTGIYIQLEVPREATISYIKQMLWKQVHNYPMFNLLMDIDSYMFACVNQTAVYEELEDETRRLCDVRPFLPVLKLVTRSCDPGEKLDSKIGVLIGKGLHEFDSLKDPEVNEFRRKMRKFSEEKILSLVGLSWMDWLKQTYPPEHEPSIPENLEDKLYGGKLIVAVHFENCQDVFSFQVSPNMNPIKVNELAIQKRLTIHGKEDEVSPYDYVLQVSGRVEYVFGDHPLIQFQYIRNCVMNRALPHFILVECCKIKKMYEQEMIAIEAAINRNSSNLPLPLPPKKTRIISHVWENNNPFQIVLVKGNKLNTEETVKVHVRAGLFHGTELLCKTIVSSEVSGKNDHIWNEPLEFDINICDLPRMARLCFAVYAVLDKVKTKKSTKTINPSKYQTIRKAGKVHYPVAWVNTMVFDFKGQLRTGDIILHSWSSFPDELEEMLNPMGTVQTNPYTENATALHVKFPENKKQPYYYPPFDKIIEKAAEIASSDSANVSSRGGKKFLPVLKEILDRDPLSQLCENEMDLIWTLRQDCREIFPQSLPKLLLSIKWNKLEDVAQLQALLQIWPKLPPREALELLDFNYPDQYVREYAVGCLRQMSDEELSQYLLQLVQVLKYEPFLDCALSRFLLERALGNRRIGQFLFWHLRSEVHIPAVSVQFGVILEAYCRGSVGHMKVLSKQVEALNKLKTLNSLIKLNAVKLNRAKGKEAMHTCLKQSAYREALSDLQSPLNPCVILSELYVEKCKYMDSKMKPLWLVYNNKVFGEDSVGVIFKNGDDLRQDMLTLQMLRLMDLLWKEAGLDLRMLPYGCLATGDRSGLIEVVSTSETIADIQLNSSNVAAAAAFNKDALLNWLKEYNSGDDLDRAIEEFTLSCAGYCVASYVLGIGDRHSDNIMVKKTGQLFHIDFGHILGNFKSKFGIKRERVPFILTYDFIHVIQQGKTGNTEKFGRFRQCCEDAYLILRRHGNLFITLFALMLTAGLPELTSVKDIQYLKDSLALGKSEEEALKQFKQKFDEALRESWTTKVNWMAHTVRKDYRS
T1 sequence (P27986 whole entry partner): as the sequence (P27986 whole entry partner) above

C[C@H](Nc1nc(N)nc(N)c1Cl)c1nc2ccc(F)c(Cl)c2c(=O)n1-c1cn[nH]c1 [Compound 263, (S)-5-chloro-2-(1-((2,6-diamino-5-chloropyrimidin-4-yl)amino)ethyl)-6-fluoro-3-(1H-pyrazol-4-yl)quinazolin-4(3H)-one]
IC50 (PI3Kβ): 190 nM | IC50 (PI3Kδ): 20 nM | IC50 (PI3Kγ): 1200 nM

C[C@H](Nc1nc(N)nc(N)c1C#N)c1nc2ccc(F)c(Cl)c2c(=O)n1-c1cn[nH]c1 [Compound 264, (S)-2,4-diamino-6-((1-(5-chloro-6-fluoro-4-oxo-3-(1H-pyrazol-4-yl)-3,4-dihydroquinazolin-2-yl)ethyl)amino)pyrimidine-5-carbonitrile]
IC50 (PI3Kβ): 8 nM | IC50 (PI3Kδ): 2 nM | IC50 (PI3Kγ): 71 nM

C[C@H](Nc1nc(N)nc(N)c1Cl)c1nc2c(Cl)cc(F)cc2c(=O)n1-c1cn[nH]c1 [Compound 265, (S)-8-chloro-2-(1-((2,6-diamino-5-chloropyrimidin-4-yl)amino)ethyl)-6-fluoro-3-(1H-pyrazol-4-yl)quinazolin-4(3H)-one]
IC50 (PI3Kβ): 180 nM | IC50 (PI3Kδ): 31 nM | IC50 (PI3Kγ): 3100 nM

C[C@H](Nc1nc(N)nc(N)c1C#N)c1nc2c(Cl)cc(F)cc2c(=O)n1-c1cn[nH]c1 [Compound 266, (S)-2,4-diamino-6-((1-(8-chloro-6-fluoro-4-oxo-3-(1H-pyrazol-4-yl)-3,4-dihydroquinazolin-2-yl)ethyl)amino)pyrimidine-5-carbonitrile]
IC50 (PI3Kβ): 4 nM | IC50 (PI3Kδ): 1 nM | IC50 (PI3Kγ): 84 nM

CCC[C@H](Nc1nc(N)nc(N)c1Cl)c1nc2ccc(F)c(Cl)c2c(=O)n1-c1cc[nH]n1 [Compound 267, (S)-5-chloro-2-(1-((2,6-diamino-5-chloropyrimidin-4-yl)amino)butyl)-6-fluoro-3-(1H-pyrazol-3-yl)quinazolin-4(3H)-one]
IC50 (PI3Kβ): 120 nM | IC50 (PI3Kδ): 27 nM | IC50 (PI3Kγ): > 10000 nM

CCC[C@H](Nc1nc(N)nc(N)c1C#N)c1nc2ccc(F)c(Cl)c2c(=O)n1-c1cc[nH]n1 [Compound 268, (S)-2,4-diamino-6-((1-(5-chloro-6-fluoro-4-oxo-3-(1H-pyrazol-3-yl)-3,4-dihydroquinazolin-2-yl)butyl)amino)pyrimidine-5-carbonitrile]
IC50 (PI3Kβ): 5 nM | IC50 (PI3Kδ): 2 nM | IC50 (PI3Kγ): 900 nM

N#Cc1c(N)nc(N)nc1N[C@H](c1nc2c(Cl)cc(F)cc2c(=O)n1-c1cn[nH]c1)C1CC1 [Compound 269, (S)-2,4-diamino-6-(((8-chloro-6-fluoro-4-oxo-3-(1H-pyrazol-4-yl)-3,4-dihydroquinazolin-2-yl)(cyclopropyl)methyl)amino)pyrimidine-5-carbonitrile]
IC50 (PI3Kβ): 0.9 nM | IC50 (PI3Kδ): 1 nM | IC50 (PI3Kγ): 170 nM

C[C@H](Nc1nc(N)nc(N)c1Cl)c1nc2c(Cl)cc(F)cc2c(=O)n1-c1n[nH]cc1Br [Compound 270, (S)-3-(4-bromo-1H-pyrazol-3-yl)-8-chloro-2-(1-((2,6-diamino-5-chloropyrimidin-4-yl)amino)ethyl)-6-fluoroquinazolin-4(3H)-one]
IC50 (PI3Kβ): 2300 nM | IC50 (PI3Kδ): 26 nM | IC50 (PI3Kγ): > 10000 nM

C[C@H](Nc1nc(N)nc(N)c1Cl)c1nc2c(C#N)cc(F)cc2c(=O)n1-c1cc[nH]n1 [Compound 271, (S)-2-(1-((2,6-diamino-5-chloropyrimidin-4-yl)amino)ethyl)-6-fluoro-4-oxo-3-(1H-pyrazol-3-yl)-3,4-dihydroquinazoline-8-carbonitrile]
IC50 (PI3Kβ): 28 nM | IC50 (PI3Kδ): 18 nM | IC50 (PI3Kγ): > 10000 nM

C[C@H](Nc1nc(N)nc(N)c1C#N)c1nc2c(C#N)cc(F)cc2c(=O)n1-c1cc[nH]n1 [Compound 272, (S)-2-(1-((2,6-diamino-5-cyanopyrimidin-4-yl)amino)ethyl)-6-fluoro-4-oxo-3-(1H-pyrazol-3-yl)-3,4-dihydroquinazoline-8-carbonitrile]
IC50 (PI3Kβ): 1 nM | IC50 (PI3Kδ): 0.9 nM | IC50 (PI3Kγ): 2700 nM

N#Cc1cc(F)cc2c(=O)n(-c3cc[nH]n3)c([C@@H](Nc3nc(N)nc(N)c3Cl)C3CC3)nc12 [Compound 273, (S)-2-(cyclopropyl((2,6-diamino-5-chloropyrimidin-4-yl)amino)methyl)-6-fluoro-4-oxo-3-(1H-pyrazol-3-yl)-3,4-dihydroquinazoline-8-carbonitrile]
IC50 (PI3Kβ): 18 nM | IC50 (PI3Kδ): 21 nM | IC50 (PI3Kγ): > 10000 nM

C[C@H](Nc1nc(N)nc(N)c1C#N)c1nc2ccccc2c(=O)n1-c1cc[nH]n1 [Compound 274, (S)-2,4-diamino-6-((1-(4-oxo-3-(1H-pyrazol-3-yl)-3,4-dihydroquinazolin-2-yl)ethyl)amino)pyrimidine-5-carbonitrile]
IC50 (PI3Kβ): 2 nM | IC50 (PI3Kδ): 3 nM | IC50 (PI3Kγ): 760 nM

C[C@H](Nc1nc(N)nc(N)c1Cl)c1nc2ccccc2c(=O)n1-c1cc[nH]n1 [Compound 275, (S)-2-(1-((2,6-diamino-5-chloropyrimidin-4-yl)amino)ethyl)-3-(1H-pyrazol-3-yl)quinazolin-4(3H)-one]
IC50 (PI3Kβ): 46 nM | IC50 (PI3Kδ): 40 nM | IC50 (PI3Kγ): > 10000 nM

C[C@H](NC(=O)c1nc(Cl)c(N)nc1N)c1nc2cccc(Cl)c2c(=O)n1-c1cc[nH]n1 [Compound 276, (S)-3,5-diamino-6-chloro-N-(1-(5-chloro-4-oxo-3-(1H-pyrazol-3-yl)-3,4-dihydroquinazolin-2-yl)ethyl)pyrazine-2-carboxamide]
IC50 (PI3Kβ): 20 nM | IC50 (PI3Kδ): 36 nM | IC50 (PI3Kγ): 280 nM

C[C@H](NC(=O)c1nc(Cl)c(N)nc1N)c1nc2c(F)ccc(Cl)c2c(=O)n1-c1cc[nH]n1 [Compound 277, (S)-3,5-diamino-6-chloro-N-(1-(5-chloro-8-fluoro-4-oxo-3-(1H-pyrazol-3-yl)-3,4-dihydroquinazolin-2-yl)ethyl)pyrazine-2-carboxamide]
IC50 (PI3Kβ): 43 nM | IC50 (PI3Kδ): 50 nM | IC50 (PI3Kγ): 390 nM

C[C@H](NC(=O)c1nc(Cl)c(N)nc1N)c1nc2c(F)ccc(Cl)c2c(=O)n1-c1cn[nH]c1 [Compound 278, (S)-3,5-diamino-6-chloro-N-(1-(5-chloro-8-fluoro-4-oxo-3-(1H-pyrazol-4-yl)-3,4-dihydroquinazolin-2-yl)ethyl)pyrazine-2-carboxamide]
IC50 (PI3Kβ): 83 nM | IC50 (PI3Kδ): 53 nM | IC50 (PI3Kγ): 590 nM

C[C@H](Nc1nc(N)nc(N)c1C#N)c1nc2c(Cl)cc(F)cc2c(=O)n1-c1cc[nH]n1 [Compound 279, (S)-2,4-diamino-6-((1-(8-chloro-6-fluoro-4-oxo-3-(1H-pyrazol-3-yl)-3,4-dihydroquinazolin-2-yl)ethyl)amino)pyrimidine-5-carbonitrile]
IC50 (PI3Kβ): 1 nM | IC50 (PI3Kδ): 0.2 nM | IC50 (PI3Kγ): 710 nM

Nc1nc(N)c(Cl)c(N[C@H](c2nc3c(Cl)cc(F)cc3c(=O)n2-c2c[nH]cn2)C2CC2)n1 [Compound 280, (S)-8-chloro-2-(cyclopropyl((2,6-diamino-5-chloropyrimidin-4-yl)amino)methyl)-6-fluoro-3-(1H-imidazol-4-yl)quinazolin-4(3H)-one]
IC50 (PI3Kβ): 370 nM | IC50 (PI3Kδ): 48 nM | IC50 (PI3Kγ): > 10000 nM

N#Cc1c(N)nc(N)nc1N[C@H](c1nc2c(Cl)cc(F)cc2c(=O)n1-c1c[nH]cn1)C1CC1 [Compound 281, (S)-2,4-diamino-6-(((8-chloro-6-fluoro-3-(1H-imidazol-4-yl)-4-oxo-3,4-dihydroquinazolin-2-yl)(cyclopropyl)methyl)amino)pyrimidine-5-carbonitrile]
IC50 (PI3Kβ): 2 nM | IC50 (PI3Kδ): 1 nM | IC50 (PI3Kγ): 620 nM

CCC[C@H](Nc1nc(N)nc(N)c1Cl)c1nc2cccc(Cl)c2c(=O)n1-c1c[nH]cn1 [Compound 282, (S)-5-chloro-2-(1-((2,6-diamino-5-chloropyrimidin-4-yl)amino)butyl)-3-(1H-imidazol-4-yl)quinazolin-4(3H)-one]
IC50 (PI3Kβ): 120 nM | IC50 (PI3Kδ): 26 nM | IC50 (PI3Kγ): 5700 nM

CCC[C@H](Nc1nc(N)nc(N)c1C#N)c1nc2cccc(Cl)c2c(=O)n1-c1c[nH]cn1 [Compound 283, (S)-2,4-diamino-6-((1-(5-chloro-3-(1H-imidazol-4-yl)-4-oxo-3,4-dihydroquinazolin-2-yl)butyl)amino)pyrimidine-5-carbonitrile]
IC50 (PI3Kβ): 3 nM | IC50 (PI3Kδ): 2 nM | IC50 (PI3Kγ): 740 nM

C[C@H](Nc1nc(N)nc(N)c1Cl)c1nc2c(Cl)cc(F)cc2c(=O)n1-c1c[nH]cn1 [Compound 284, (S)-8-chloro-2-(1-((2,6-diamino-5-chloropyrimidin-4-yl)amino)ethyl)-6-fluoro-3-(1H-imidazol-4-yl)quinazolin-4(3H)-one]
IC50 (PI3Kβ): 340 nM | IC50 (PI3Kδ): 20 nM | IC50 (PI3Kγ): > 10000 nM

C[C@H](Nc1nc(N)nc(N)c1C#N)c1nc2c(Cl)cc(F)cc2c(=O)n1-c1c[nH]cn1 [Compound 285, (S)-2,4-diamino-6-((1-(8-chloro-6-fluoro-3-(1H-imidazol-4-yl)-4-oxo-3,4-dihydroquinazolin-2-yl)ethyl)amino)pyrimidine-5-carbonitrile]
IC50 (PI3Kβ): 4 nM | IC50 (PI3Kδ): 1 nM | IC50 (PI3Kγ): 330 nM

C[C@H](Nc1nc(N)nc(N)c1C#N)c1nc2c(Cl)ccc(Cl)c2c(=O)n1-c1c[nH]cn1 [Compound 286, (S)-2,4-diamino-6-((1-(5,8-dichloro-3-(1H-imidazol-4-yl)-4-oxo-3,4-dihydroquinazolin-2-yl)ethyl)amino)pyrimidine-5-carbonitrile]
IC50 (PI3Kβ): 0.8 nM | IC50 (PI3Kδ): 0.3 nM | IC50 (PI3Kγ): 230 nM

Nc1nc(N)c(Cl)c(N[C@H](c2nc3cccc(Cl)c3c(=O)n2-c2c[nH]cn2)C2CC2)n1 [Compound 287, (S)-5-chloro-2-(cyclopropyl((2,6-diamino-5-chloropyrimidin-4-yl)amino)methyl)-3-(1H-imidazol-4-yl)quinazolin-4(3H)-one]
IC50 (PI3Kβ): 53 nM | IC50 (PI3Kδ): 8 nM | IC50 (PI3Kγ): 3000 nM

C[C@H](Nc1nc(N)nc(N)c1C#N)c1nc2cccc(Cl)c2c(=O)n1-c1c[nH]cn1 [Compound 288, (S)-2,4-diamino-6-((1-(5-chloro-3-(1H-imidazol-4-yl)-4-oxo-3,4-dihydroquinazolin-2-yl)ethyl)amino)pyrimidine-5-carbonitrile]
IC50 (PI3Kβ): 2 nM | IC50 (PI3Kδ): 0.7 nM | IC50 (PI3Kγ): 190 nM
